One data set deals with T1, phosphodiesterase 4A (Homo sapiens, UniProt P27815).
T1 construct: made in house; host or cells: E. coli
The data set can be described thus: Recombinant human PDE4A assay. The class given is biochemical. To be noted: for inhibition at 0.1 µM: 10^−7 M, read-out: Enzyme Inhibitory Activity (%, 10^−7 M).

Data set [1] deals with cAMP-specific phosphodiesterase (PDE IV). Briefly: Inhibition of the PDE IV enzyme derived from a dog trachea. The class given is biochemical. The settings on record: test compound 10^−6 M; PDE IV from dog tracheal smooth muscle; substrate cAMP 1 μM. In outline:
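Enzyme purified from dog tracheal smooth muscle; [3H]cAMP substrate at 1 μM final in 50 mM BES pH 7.2, 1 mM MgCl2, 0.1 mg/ml soybean trypsin inhibitor, 30° C for 10–30 min, 1.7% DMSO final. After HCl stop, product converted to adenosine by 5′-nucleotidase, separated on DEAE-Sephadex and scintillation-counted.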

The structures appear in SMILES notation.

The term melting point denotes the temperature, or range, at which the solid turns liquid.

T1 sequence (P27815 224-886 limits assumed): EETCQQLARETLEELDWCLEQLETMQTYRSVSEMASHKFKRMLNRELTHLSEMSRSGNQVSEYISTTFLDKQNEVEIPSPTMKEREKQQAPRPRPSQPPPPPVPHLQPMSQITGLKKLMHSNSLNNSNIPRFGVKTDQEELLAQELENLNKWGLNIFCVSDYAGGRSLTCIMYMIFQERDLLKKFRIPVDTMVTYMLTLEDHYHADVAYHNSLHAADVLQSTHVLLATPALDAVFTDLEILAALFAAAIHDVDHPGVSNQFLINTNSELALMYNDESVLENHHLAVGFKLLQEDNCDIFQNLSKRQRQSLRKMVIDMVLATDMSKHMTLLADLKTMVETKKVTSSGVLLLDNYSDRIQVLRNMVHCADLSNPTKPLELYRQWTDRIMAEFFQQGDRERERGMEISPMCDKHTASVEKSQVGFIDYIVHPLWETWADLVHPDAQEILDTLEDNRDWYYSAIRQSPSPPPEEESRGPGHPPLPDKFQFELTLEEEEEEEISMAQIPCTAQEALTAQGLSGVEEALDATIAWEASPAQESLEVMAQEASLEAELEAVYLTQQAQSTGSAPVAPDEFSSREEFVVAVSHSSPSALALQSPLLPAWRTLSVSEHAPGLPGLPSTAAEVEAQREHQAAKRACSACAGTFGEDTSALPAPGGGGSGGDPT

`COc1ccc(C(=O)Nc2c(Cl)cncc2Cl)c2c1OC(C)(C)O2` [Compound 199, 7-(3,5-dichloro-4-pyridylaminocarbonyl)-4-methoxy-2,2-dimethyl-3,4-benzodioxole]: the “Enzyme Inhibitory Activity (%, 10^−7 M)” value at phosphodiesterase 4A is listed as 57%.

For `COc1ccc(C(=O)Cc2c(Cl)cncc2Cl)c2c(CC(=O)NCc3ccccn3)coc12.Cl.Cl` [Compound 157, 4-[2-(3,5-Dichloro-4-pyridyl)-1-oxoethyl]-7-methoxy-3-[(2-pyridylmethyl)aminocarbonylmethyl]benzofuran.2 hydrochloride], the “Enzyme Inhibitory Activity (%, 10^−7 M)” value on phosphodiesterase 4A is 89%.

`COc1ccc(C(=O)Nc2c(Cl)cncc2Cl)c2c1OC1(CCCC1)O2` [Compound 134, 7-(3,5-Dichloro-4-pyridylaminocarbonyl)-4-methoxy-spiro[1,3-benzodioxole-2,1′-cyclopentane]] showed a melting point of 168 to 170 °C. Moreover, the inhibition at 0.1 µM on phosphodiesterase 4A came out at 100%.

The compound `COc1ccc(/C=C/c2c(Cl)cncc2Cl)c2c1OCCCO2` [Compound 191, (E)-6-[2-(3,5-dichloro-4-pyridyl)ethenyl]-3,4-dihydro-9-methoxy-2H-1,5-benzodioxepin] yielded a melting point of 118 to 120 °C. Also, the inhibition at 0.1 µM at phosphodiesterase 4A was 84%.

Regarding `COc1ccc(C(=O)Cc2ccncc2)c2c1OC1(CCCC1)O2.Cl` [Compound 141, 4-Methoxy-7-[1-oxo-2-(4-pyridyl)ethyl]-spiro[1,3-benzodioxole-2,1′-cyclopentane].hydrochloride], at phosphodiesterase 4A, the “Enzyme Inhibitory Activity (%, 10^−7 M)” value came out at 76%.

`COc1ccc(C(=O)Cc2c(Cl)cccc2Cl)c2cc(C(=O)c3ccccn3)oc12` [Compound 160, 4-[2-(2,6-Dichlorophenyl)-1-oxoethyl]-7-methoxy-2-(2-pyridylcarbonyl)benzofuran] came in with a melting point of 228 to 229 °C. The inhibition at 0.1 µM on phosphodiesterase 4A is 91%.

`COc1ccc(C(=O)Nc2c(Cl)cccc2Cl)c2cc(C(=O)c3ccccc3)oc12` [Compound 168, 2-Benzoyl-4-[(2,6-dichiorophenyl)aminocarbonyl]-7-methoxybenzofuran]: the “Enzyme Inhibitory Activity (%, 10^−7 M)” value at phosphodiesterase 4A was 96%.

On to `COc1ccc(C(=O)Cc2c(Cl)cncc2Cl)c2c1OCCCO2` [Compound 189, 6-[2-(3,5-dichloro-4-pyridyl)-1-oxoethyl]-3,4-dihydro-9-methoxy-2H-1,5-benzodioxepin], for which the melting point is 150 to 151 °C. Further, the inhibition at 0.1 µM on phosphodiesterase 4A worked out at 84%.

`COc1ccc(C(=O)Nc2c(Cl)cncc2Cl)c2c1OC1(C=C2)CCCC1` [Compound 123, 5-(3,5-Dichloro-4-pyridylaminocarbonyl)-8-methoxy-spiro[benzopyran-2,1′-cyclopentane]] registered a melting point of 129 to 131 °C. Also, on phosphodiesterase 4A, the inhibition at 0.1 µM came out at 87%.

Regarding `COc1ccc(C(=O)Cc2c(Cl)cncc2Cl)c2c(CC(=O)OCCc3ccccc3)coc12` [Compound 153, 4-[2-(3,5-Dichloro-4-pyridyl)-1-oxoethyl]-7-methoxy-3-phenethyloxycarbonylmethylbenzofuran], the melting point lay in the range of 183 to 184 °C. Further, the inhibition at 0.1 µM at phosphodiesterase 4A is 94%.

As to `COc1ccc(/C=C/c2c(Cl)cncc2Cl)c2cc(-c3ccccn3)oc12` [Compound 84, (E)-4-[2-(3,5-Dichloro-4-pyridyl)ethenyl]-7-methoxy-2-(2-pyridyl)benzofuran], the melting point fell in the range of 157 to 158 °C. The inhibition at 0.1 µM at phosphodiesterase 4A stood at 98%.

`COc1ccc(C(=O)Cc2c(Cl)cncc2Cl)c2c1OC1(CCCCC1)C2` [Compound 101, 4-[2-(3,5-Dichloro-4-pyridyl)-1-oxoethyl]-7-methoxy-spiro[2,3-dihydrobenzofuran-2,1′-cyclohexane]]: the melting point lay within 149 to 151 °C. Moreover, the inhibition at 0.1 µM at phosphodiesterase 4A was 100%.

As for `COc1ccc(C(=O)Cc2c(Cl)cncc2Cl)c2c(CC(=O)Nc3cccnc3)coc12` [Compound 156, 4-[2-(3,5-Dichloro-4-pyridyl)-1-oxoethyl]-7-methoxy-3-[(3-pyridyl)aminocarbonylmethyl]benzofuran], the melting point was in the range of 252 to 255 °C. At phosphodiesterase 4A, the inhibition at 0.1 µM was 90%.

`COc1ccc(C(=O)Cc2c(Cl)cncc2Cl)c2c(CC(=O)OCc3ccccc3[N+](=O)[O-])coc12` [Compound 154, 4-[2-(3,5-Dichloro-4-Pyridyl)-1-oxoethyl]-7-methoxy-3-[(2-nitrobenzyl)oxycarbonylmethyl]benzofuran] came in with a melting point of 200 to 201 °C. The inhibition at 0.1 µM on phosphodiesterase 4A was found to be 92%.

For `COc1ccc(C(=O)Cc2ccncc2)c2cc(C(=O)Nc3ccccc3)oc12.Cl` [Compound 165, 7-Methoxy-4-[1-oxo-2-(4-pyridyl)ethyl]-2-(phenylaminocarbonyl)benzofuran.hydrochloride], the “Enzyme Inhibitory Activity (%, 10^−7 M)” value at phosphodiesterase 4A worked out at 64%.

On to `COc1ccc(C(=O)Cc2c(Cl)c[n+]([O-])cc2Cl)c2c1OCCCCO2` [Compound 195, 7-[2-(3,5-dichloro-N-oxo-4-pyridyl)-1-oxoethyl]-10-methoxy-2,3,4,5-tetrahydro-1,6-benzodioxocin], for which the “Enzyme Inhibitory Activity (%, 10^−7 M)” value on phosphodiesterase 4A is on record as 93%.

Take `COc1ccc(C(=O)Cc2ccncc2)c2c1OC1(CCCCC1)C2.Cl` [Compound 102, 7-Methoxy-4-[1-oxo-2-(4-pyridyl)ethyl]-spiro[2,3-dihydrobenzofuran-2,1′-cyclohexane].hydrochloride]: at phosphodiesterase 4A, the “Enzyme Inhibitory Activity (%, 10^−7 M)” value is 95%.

Take `COc1ccc(C(=O)Cc2c(Cl)cccc2Cl)c2cc(C(=O)Nc3cccc(F)c3)oc12` [Compound 161, 4-[2-(2,6-Dichlorophenyl)-1-oxoethyl]-2-[(3-fluorophenyl)aminocarbonyl]-7-methoxybenzofuran]: the melting point fell in the range of 251 to 252 °C. On phosphodiesterase 4A, the inhibition at 0.1 µM was found to be 87%.

Regarding `COc1ccc(C(=O)Cc2c(Cl)cncc2Cl)c2c1OC1(CCCCCC1)O2` [Compound 177, 7-[2-(3,5-Dichloro-4-pyridyl)-1-oxoethyl)-4-methoxy-spiro[1,3-benzodioxole-2,1′-cycloheptane]], the inhibition at 0.1 µM on phosphodiesterase 4A turned out to be 93%.

`COc1ccc(C=Cc2c(Cl)cncc2Cl)c2c1OC1(CCCC1)O2` [Compound 138, 7-[2-(3,5-Dichloro-4-pyridyl)ethenyl]-4-methoxy-spiro[1,3-benzodioxole-2,1′-cyclopentane]]: the melting point was 100 to 101 °C. Moreover, the inhibition at 0.1 µM at phosphodiesterase 4A is 100%.

For the compound `COc1ccc(C(=O)Cc2c(Cl)cncc2Cl)c2c1OC1(CCCC1)O2` [Compound 140, 7-[2-(3,5-Dichloro-4-pyridyl)-1-oxoethyl]-4-methoxy-spiro[1,3-benzodioxole-2,1′-cyclopentane]], the inhibition at 0.1 µM on phosphodiesterase 4A was found to be 100%.

As for `COc1ccc(C(=O)Cc2c(Cl)cncc2Cl)c2cc(-c3ccncc3)oc12.Cl.Cl` [Compound 114, 4-[2-(3,5-Dichloro-4-pyridyl)-1-oxoethyl]-7-methoxy-2-(4-pyridyl)benzofuran.2 hydrochloride], at phosphodiesterase 4A, the “Enzyme Inhibitory Activity (%, 10^−7 M)” value turned out to be 100%.

In the case of `COc1ccc(C(=O)Nc2c(Cl)cncc2Cl)c2cc(-c3ccccn3)oc12` [Compound 40, 4-[(3,5-Dichloro-4-pyridyl)aminocarbonyl]-7-methoxy-2-(2-pyridyl)benzofuran], the melting point lay within 263 to 264 °C. Also, the “Enzyme Inhibitory Activity (%, 10^−6 M)” value in data set [1] was determined as 89%.

For the compound `COc1ccc(C(=O)Nc2c(Cl)cncc2Cl)c2cc(C(=O)c3ccccc3)oc12` [Compound 35], the “Enzyme Inhibitory Activity (%, 10^−7 M)” value on phosphodiesterase 4A is listed as 100%.

As for `COc1ccc(C(=O)Cc2c(Cl)cncc2Cl)c2c1OCCCCO2` [Compound 194, 7-[2-(3,5-dichloro-4-pyridyl)-1-oxoethyl]-10-methoxy-2,3,4,5-tetrahydro-1,6-benzodioxocin], the melting point lay within 142 to 143 °C. Moreover, the inhibition at 0.1 µM on phosphodiesterase 4A stood at 92%.

Turning to `COc1ccc(CNC(=O)CC2COc3c(OC)ccc(C(=O)Nc4c(Cl)cncc4Cl)c32)cc1` (racemic) [Compound 28, (±)-4-[(3,5-Dichloro-4-pyridyl)aminocarbonyl]-7-methoxy-3-[(4-methoxybenzyl)aminocarbonyl]methyl-2,3-dihydrobenzofuran], the melting point is 269 to 271 °C. Moreover, in data set [1], the “Enzyme Inhibitory Activity (%, 10^−6 M)” value was 83%.

Compound `COc1ccc(C(=O)Cc2c(Cl)cncc2Cl)c2c1OC1(CCCC1)C2` [Compound 99, 4-[2-(3,5-Dichloro-4-pyridyl)-1-oxoethyl]-7-methoxy-spiro[2,3-dihydrobenzofuran-2,1′-cyclopentane]] came in with a melting point of 159 to 162 °C. For the same compound, the “Enzyme Inhibitory Activity (%, 10^−6 M)” value in data set [1] amounted to 91%.

For `CCOC(=O)c1coc2c(OC)ccc(C(=O)Cc3c(Cl)cncc3Cl)c12` [Compound 159, Ethyl 4-[2-(3,5-dichloro-4-pyridyl)-1-oxoethyl]-7-methoxybenzofuran-3-carboxylate], the inhibition at 0.1 µM on phosphodiesterase 4A amounted to 99%.

With `COc1ccc(C(=O)Nc2c(Cl)cncc2Cl)c2c1OCC2CC(=O)NCc1ccccc1Cl` (racemic) [Compound 31, (±)-3-[(2-Chlorobenzyl)aminocarbonyl]methyl-4-[(3,5-dichloro-4-pyridyl)aminocarbonyl]-7-methoxy-2,3-dihydro-benzofuran], the melting point lay in the range of 288 to 289 °C. Besides, the “Enzyme Inhibitory Activity (%, 10^−6 M)” value in data set [1] turned out to be 89%.

As to `COc1ccc(C(=O)Nc2c(Cl)cncc2Cl)c2c1OCC2CC(=O)NCc1cccnc1` (racemic) [Compound 18, (±)-4-[(3,5-Dichloro-4-pyridyl)aminocarbonyl]-7-methoxy-3-[(3-pyridylmethyl)aminocarbonyl]methyl-2,3-dihydrobenzofuran], the melting point was 258 to 261 °C (dec.). In data set [1], the “Enzyme Inhibitory Activity (%, 10^−6 M)” value is on record as 81%.

For the compound `COc1ccc(C(=O)Nc2c(Cl)cncc2Cl)c2c(-c3ccccc3)coc12` [Compound 42, 4-[(3,5-Dichloro-4-pyridyl)aminocarbonyl]-7-methoxy-3-phenylbenzofuran], the melting point was 177 to 179 °C. In addition, the “Enzyme Inhibitory Activity (%, 10^−6 M)” value in data set [1] turned out to be 73%.

(Values after patent publication US6716987B1, “Derivatives of benzofuran or benzodioxazole compounds” (Kyowa Hakko Kogyo Co., Ltd., priority 1995, dated 2004).)
